Measurements as given in US20240391862A1, “(1,4,5-TRISUBSTITUTED-1H-PYRAZOL-3-YL)OXY-2-ALKOXY ALKYL ACIDS AND THEIR DERIVATIVES, THEIR SALTS AND THEIR USE AS HERBICIDAL AGENTS” (Bayer AKtiengesellschaft, priority 2021, published 2024).

Experiments:
PHBPU = experiment: Post-emergence herbicidal effect, greenhouse pot test; assay type: in vivo, Ipomoea purpurea
Source text: (§1) • ALOMY: Alopecurus myosuroides SETVI: Setaria viridis • AVEFA: Avena fatua POLCO: Fallopia convolvulus • AMARE: Amaranthus retroflexus ECHCG: Echinochloa crus-galli • LOLRJ: Lolium rigidum STEME: Stellaria media • VERPE: Veronica persica MATIN: Tripleurospermum inodorum • DIGSA: Digitaria sanguinalis ABUTH: Abutylon threophrasti • TRZAS: Triticum aestivum VIOTR: Viola tricolor • BRSNW: Brassica napus ZEAMX: Zea mays • PHBPU: Ipomoea purpurea GLXMA: Glycine max • ORYSA: Oryza sativa HORMU: Hordeum murinum
(§2) Seeds of monocotyledonous and dicotyledonous weeds and crop plants are placed in sandy loam in plastic or organic planting pots, covered with soil and cultivated in a greenhouse under controlled growth conditions. 2 to 3 weeks after sowing, the trial plants are treated at the one-leaf stage. The compounds of the invention, formulated in the form of wettable powders (WP) or as emulsion concentrates (EC), are then sprayed onto the green parts of the plants as aqueous suspension or emulsion with addition of 0.5% additive at a water application rate of 600 l/ha (converted). After the test plants have been kept in the greenhouse under optimum growth conditions for about 3 weeks, the activity of the preparations is rated visually in comparison to untreated controls. For example, 100% activity=the plants have died, 0% activity=like control plants.
(§3) Tables 20a to 38c below show the effects/crop compatibilities of selected compounds of the general formula (I) on various harmful plants at an application rate corresponding to 20 to 320 g/ha, which were obtained by the trial procedure specified above.

ECHCG = experiment: as above; assay type: in vivo, Echinochloa crus-galli
Source text: as §1, §2, §3

VERPE = experiment: as above; assay type: in vivo, Veronica persica
Source text: as §1, §2, §3

AVEFA = experiment: as above; assay type: in vivo, Avena fatua; settings: visual rating about 3 weeks after treatment
Source text: as §1, §2, §3

MATIN = experiment: as above; assay type: in vivo, Tripleurospermum inodorum
Source text: as §1, §2, §3

KCHSC = experiment: as above; assay type: in vivo
Experimental: as §2, with “plants. Tables 20a to 38c below show the effects/crop compatibilities of selected compounds of the general formula (I) on various harmful plants at an application rate corresponding to 20 to 320 g/ha, which were obtained by the trial procedure specified above.” for “plants.”

ABUTH = experiment: as above; assay type: in vivo, Abutilon theophrasti; settings: visual rating about 3 weeks after treatment
Source text: as §1, §2, §3

DIGSA = experiment: as above; assay type: in vivo, Digitaria sanguinalis; settings: visual rating about 3 weeks after treatment
Source text: as §1, §2, §3

VIOTR = experiment: as above; assay type: in vivo, Viola tricolor
Source text: as §1, §2, §3

ALOMY = experiment: as above; assay type: in vivo, Alopecurus myosuroides; settings: 320 g/ha, visual rating about 3 weeks after treatment
Source text: as §1, §2, §3

SETVI = experiment: as above; assay type: in vivo, Setaria viridis
Source text: as §1, §2, §3

POLCO = experiment: as above; assay type: in vivo, Fallopia convolvulus
Source text: as §1, §2, §3

ZEAMX = experiment: Post-emergence herbicidal effect and crop plant compatibility, greenhouse pot test; assay type: in vivo, Zea mays; settings: 20 g/ha, one-leaf stage, rated visually after about 3 weeks vs untreated controls
Source text: as §1, §2, §3

AMARE = experiment: Post-emergence herbicidal effect, greenhouse pot test; assay type: in vivo, Amaranthus retroflexus; settings: 320 g/ha, visual rating about 3 weeks after treatment
Source text: as §1, §2, §3

CCOC(Oc1nn(-c2ccccc2F)c(-c2ccc(F)nc2)c1Br)C(=O)OCCC(=O)OC (single isomer, unassigned) [Example I-63, Methyl 3-{[(2R*)-2-{[4-bromo-1-(2-fluorophenyl)-5-(6-fluoropyridin-3-yl)-1H-pyrazol-3-yl]oxy}-2-ethoxyethanoyl]oxy}propanoate]
pest or weed control at 20 g/ha (PHBPU; Ipomoea purpurea, 504 h, 20 g/ha, read-out: Post-emergence effect against PHBPU in %): 80%
pest or weed control at 80 g/ha (PHBPU; Ipomoea purpurea, 504 h, 80 g/ha, read-out: Post-emergence effect against PHBPU in %): 90%
pest or weed control at 320 g/ha (PHBPU; Ipomoea purpurea, 504 h, 320 g/ha, read-out: Post-emergence effect against PHBPU in %): 90%
pest or weed control at 20 g/ha (ECHCG; Echinochloa crus-galli, 504 h, 20 g/ha, visual rating about 3 weeks after treatment, read-out: Post-emergence effect against ECHCG): 90%
pest or weed control at 80 g/ha (ECHCG; Echinochloa crus-galli, 504 h, 80 g/ha, read-out: Post-emergence effect against ECHCG in %): 90%
pest or weed control at 320 g/ha (ECHCG; Echinochloa crus-galli, 504 h, 320 g/ha, read-out: Post-emergence effect against ECHCG in %): 90%
pest or weed control at 80 g/ha (VERPE; Veronica persica, 504 h, 80 g/ha, read-out: Post-emergence effect against VERPE in %): 80%
pest or weed control at 320 g/ha (VERPE; Veronica persica, 504 h, 320 g/ha, read-out: Post-emergence effect against VERPE in %): 80%
pest or weed control at 80 g/ha (AVEFA; Avena fatua, 504 h, 80 g/ha, read-out: Post-emergence effect against AVEFA): 80%
pest or weed control at 320 g/ha (AVEFA; Avena fatua, 504 h, 320 g/ha, read-out: Post-emergence effect against AVEFA): 90%
pest or weed control at 80 g/ha (MATIN; Tripleurospermum inodorum, 504 h, 80 g/ha, read-out: Post-emergence effect against MATIN in %): 80%
pest or weed control at 320 g/ha (MATIN; Tripleurospermum inodorum, 504 h, 320 g/ha, read-out: Post-emergence effect against MATIN in %): 80%
pest or weed control at 320 g/ha (KCHSC; 504 h, 320 g/ha, read-out: Post-emergence effect against KCHSC in %): 90%
pest or weed control at 80 g/ha (ABUTH; Abutilon theophrasti, 504 h, 80 g/ha, read-out: Post-emergence effect against ABUTH): 90%
pest or weed control at 320 g/ha (ABUTH; Abutilon theophrasti, 504 h, 320 g/ha, read-out: Post-emergence effect against ABUTH): 90%
pest or weed control at 80 g/ha (DIGSA; Digitaria sanguinalis, 504 h, 80 g/ha, read-out: Post-emergence effect against DIGSA): 90%
pest or weed control at 320 g/ha (DIGSA; Digitaria sanguinalis, 504 h, 320 g/ha, read-out: Post-emergence effect against DIGSA): 90%
pest or weed control at 80 g/ha (VIOTR; Viola tricolor, 504 h, 80 g/ha, read-out: Post-emergence effect against VIOTR in %): 80%
pest or weed control at 320 g/ha (VIOTR; Viola tricolor, 504 h, 320 g/ha, read-out: Post-emergence effect against VIOTR in %): 90%
pest or weed control at 320 g/ha (ALOMY; Alopecurus myosuroides, 504 h, read-out: Post-emergence effect against ALOMY): 90%
pest or weed control at 80 g/ha (SETVI; Setaria viridis, 504 h, 80 g/ha, read-out: Post-emergence effect against SETVI in %): 90%
pest or weed control at 320 g/ha (SETVI; Setaria viridis, 504 h, 320 g/ha, read-out: Post-emergence effect against SETVI in %): 90%
pest or weed control at 80 g/ha (POLCO; Fallopia convolvulus, 504 h, 80 g/ha, read-out: Post-emergence effect against POLCO in %): 80%
pest or weed control at 320 g/ha (POLCO; Fallopia convolvulus, 504 h, 320 g/ha, read-out: Post-emergence effect against POLCO in %): 90%

COC(=O)CCOC(=O)C(OC)Oc1nn(-c2ncccc2F)c(-c2ccc(F)nc2)c1C1CC1 (single isomer, unassigned) [Example I-80]
Post-emergence effect against PHBPU in % (PHBPU; 80 g/ha): 90%
Post-emergence effect against PHBPU in % (PHBPU; 320 g/ha): 90%
Post-emergence effect against ECHCG (ECHCG; 20 g/ha, visual rating about 3 weeks after treatment): 90%
Post-emergence effect against ECHCG in % (ECHCG; 80 g/ha): 90%
Post-emergence effect against ECHCG in % (ECHCG; 320 g/ha): 90%
Post-emergence effect against VERPE in % (VERPE; 80 g/ha): 80%
Post-emergence effect against VERPE in % (VERPE; 320 g/ha): 90%
Post-emergence effect against AVEFA (AVEFA; 320 g/ha): 90%
Post-emergence effect at 20 g/ha against ZEAMX in % (ZEAMX): 20%
Post-emergence effect against KCHSC in % (KCHSC; 20 g/ha): 90%
Post-emergence effect against KCHSC in % (KCHSC; 80 g/ha): 90%
Post-emergence effect against KCHSC in % (KCHSC; 320 g/ha): 90%
Post-emergence effect against ABUTH (ABUTH; 80 g/ha): 80%
Post-emergence effect against ABUTH (ABUTH; 320 g/ha): 80%
Post-emergence effect against DIGSA (DIGSA; 80 g/ha): 80%
Post-emergence effect against DIGSA (DIGSA; 320 g/ha): 90%
Post-emergence effect against VIOTR in % (VIOTR; 80 g/ha): 80%
Post-emergence effect against VIOTR in % (VIOTR; 320 g/ha): 90%
Post-emergence effect against AMARE (AMARE): 80%
Post-emergence effect against ALOMY (ALOMY): 90%
Post-emergence effect against SETVI in % (SETVI; 80 g/ha): 90%
Post-emergence effect against SETVI in % (SETVI; 320 g/ha): 90%
Post-emergence effect against POLCO in % (POLCO; 320 g/ha): 90%

COC(=O)CCOC(=O)C(OC)Oc1nn(-c2ccccc2F)c(-c2ccc(F)nc2)c1C1CC1 (centres unmarked) [Example I-61]
Post-emergence effect against PHBPU in % (PHBPU; 80 g/ha): 90%
Post-emergence effect against PHBPU in % (PHBPU; 320 g/ha): 90%
Post-emergence effect against ECHCG in % (ECHCG; 80 g/ha): 90%
Post-emergence effect against ECHCG in % (ECHCG; 320 g/ha): 90%
Post-emergence effect against VERPE in % (VERPE; 80 g/ha): 80%
Post-emergence effect against VERPE in % (VERPE; 320 g/ha): 80%
Post-emergence effect against AVEFA (AVEFA; 80 g/ha): 80%
Post-emergence effect against AVEFA (AVEFA; 320 g/ha): 90%
Post-emergence effect at 20 g/ha against ZEAMX in % (ZEAMX): 0%
Post-emergence effect against MATIN in % (MATIN; 80 g/ha): 80%
Post-emergence effect against MATIN in % (MATIN; 320 g/ha): 80%
Post-emergence effect against KCHSC in % (KCHSC; 80 g/ha): 80%
Post-emergence effect against KCHSC in % (KCHSC; 320 g/ha): 90%
Post-emergence effect against ABUTH (ABUTH; 80 g/ha): 80%
Post-emergence effect against ABUTH (ABUTH; 320 g/ha): 80%
Post-emergence effect against DIGSA (DIGSA; 80 g/ha): 80%
Post-emergence effect against DIGSA (DIGSA; 320 g/ha): 90%
Post-emergence effect against VIOTR in % (VIOTR; 20 g/ha): 80%
Post-emergence effect against VIOTR in % (VIOTR; 80 g/ha): 90%
Post-emergence effect against VIOTR in % (VIOTR; 320 g/ha): 90%
Post-emergence effect against ALOMY (ALOMY): 90%
Post-emergence effect against SETVI in % (SETVI; 80 g/ha): 90%
Post-emergence effect against SETVI in % (SETVI; 320 g/ha): 90%
Post-emergence effect against POLCO in % (POLCO; 80 g/ha): 80%
Post-emergence effect against POLCO in % (POLCO; 320 g/ha): 80%

COC(=O)CCOC(=O)C(OC)Oc1nn(-c2ccccc2F)c(-c2ccc(F)nc2)c1C(F)(F)F (centres unmarked) [Example I-62]
Post-emergence effect against PHBPU in % (PHBPU; 20 g/ha): 90%
Post-emergence effect against PHBPU in % (PHBPU; 80 g/ha): 90%
Post-emergence effect against PHBPU in % (PHBPU; 320 g/ha): 90%
Post-emergence effect against ECHCG in % (ECHCG; 80 g/ha): 90%
Post-emergence effect against ECHCG in % (ECHCG; 320 g/ha): 90%
Post-emergence effect against VERPE in % (VERPE; 80 g/ha): 80%
Post-emergence effect against VERPE in % (VERPE; 320 g/ha): 80%
Post-emergence effect against AVEFA (AVEFA; 80 g/ha): 90%
Post-emergence effect against AVEFA (AVEFA; 320 g/ha): 90%
Post-emergence effect at 20 g/ha against ZEAMX in % (ZEAMX): 0%
Post-emergence effect against MATIN in % (MATIN; 80 g/ha): 80%
Post-emergence effect against MATIN in % (MATIN; 320 g/ha): 80%
Post-emergence effect against KCHSC in % (KCHSC; 20 g/ha): 80%
Post-emergence effect against KCHSC in % (KCHSC; 80 g/ha): 90%
Post-emergence effect against KCHSC in % (KCHSC; 320 g/ha): 90%
Post-emergence effect against ABUTH (ABUTH; 80 g/ha): 80%
Post-emergence effect against ABUTH (ABUTH; 320 g/ha): 90%
Post-emergence effect against DIGSA (DIGSA; 80 g/ha): 90%
Post-emergence effect against DIGSA (DIGSA; 320 g/ha): 90%
Post-emergence effect against VIOTR in % (VIOTR; 80 g/ha): 90%
Post-emergence effect against VIOTR in % (VIOTR; 320 g/ha): 90%
Post-emergence effect against ALOMY (ALOMY): 90%
Post-emergence effect against SETVI in % (SETVI; 80 g/ha): 90%
Post-emergence effect against SETVI in % (SETVI; 320 g/ha): 90%
Post-emergence effect against POLCO in % (POLCO; 80 g/ha): 80%
Post-emergence effect against POLCO in % (POLCO; 320 g/ha): 80%
